{"source": "patent US6518306B1", "about": "“1,4-substitued 4,4-diaryl cyclohexanes” (SmithKline Beecham Corporation, priority 1999, dated 2003)", "system": "TNF", "assay": "Endotoxic shock models, in vivo TNF activity", "conditions": "endotoxic shock model; serum TNF after endotoxin injection", "text": "Two models of endotoxic shock have been utilized to determine in vivo TNF activity for the compounds of Formula (I) and (II). The protocol used in these models is described in Badger et al., EPO published Application 0 411 754 A2, Feb. 6, 1991, and in Hanna. WO 90/15534, Dec. 27, 1990.", "data": [{"smiles": "COc1ccc(C=O)cc1OC1CCCC1", "note": "[Example 1, 3-Cyclopentyloxy-4-methoxybenzaldehyde]", "values": [{"measurement": "in vivo response in reducing serum levels of TNF induced by the injection of endotoxin", "result": "positive in vivo response"}]}]}
